Like-named read-outs stand apart in the source and are kept apart here.
Target: T1, G protein-coupled receptor 119 (GPR-119) (Mesocricetus auratus, UniProt A0A1U8CD06)
T1 construct: hamster-derived β-cells containing G protein-coupled receptor 119 (GPR-119), HIT-T15 cells; host or cells: HIT-T15 (hamster pancreatic β-cells)
T1 sequence (A0A1U8CD06 1-334): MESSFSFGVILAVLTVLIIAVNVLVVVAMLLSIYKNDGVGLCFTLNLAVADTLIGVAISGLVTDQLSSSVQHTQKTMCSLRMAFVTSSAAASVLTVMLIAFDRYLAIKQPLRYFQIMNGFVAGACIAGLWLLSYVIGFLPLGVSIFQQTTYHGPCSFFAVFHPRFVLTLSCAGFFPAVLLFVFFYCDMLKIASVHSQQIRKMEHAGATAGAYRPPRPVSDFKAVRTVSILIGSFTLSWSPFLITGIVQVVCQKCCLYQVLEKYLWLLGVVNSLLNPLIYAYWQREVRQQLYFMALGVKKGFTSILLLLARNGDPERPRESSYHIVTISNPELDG
Test: Evaluation of cAMP activity in HIT-T15 cells (HTRF cAMP dynamic kit)
Type: cell-based, hamster
Conditions: cAMP activation
Summary of the method: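 HIT-T15 cells, 60,000/well, treated next day with compound at six concentrations ([…]) for 1 h at 37° C. Lysate cAMP quantified by HTRF competitive immunoassay (D2-cAMP, cryptate anti-cAMP); activity taken as change in FRET signal relative to DMSO.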

[1] = 1 h at 37° C., six concentrations, read-out: EC50

Row | SMILES | EC50 [1] | EC50 (read-out: EC50 value)
1 | CCc1cnc(N2CCC(COc3ccc(C4=CCC(C(=O)N(C)CCO)CC4)cc3)CC2)nc1 (stereo not shown) [Example 21, 4-(4-((1-(5-ethylpyrimidin-2-yl)piperidin-4-yl)methoxy)phenyl)-N-(2-hydroxyethyl)-N-methylcyclohex-3-enecarboxamide] | 16 nM | ≤ 50 nM
2 | CCc1cnc(N2CCC(COc3ccc(C4=CCC(C(=O)N5CC[C@H](O)C5)CC4)cc3)CC2)nc1 (stereo partly drawn) [Example 135, (4-(4-((1-(5-ethylpyrimidin-2-yl)piperidin-4-yl)methoxy)phenyl)cyclohex-3-enyl)((S)-3-hydroxypyrrolidin-1-yl)methanone] | 30 nM | ≤ 50 nM
3 | C[C@H](CO)NC(=O)C1CC=C(c2ccc(OCC3CCN(C(=O)OC(C)(C)C)CC3)nc2)CC1 (stereo partly drawn) [Example 25, tert-butyl 4-((5-(4-((R)-1-hydroxypropan-2-ylcarbamoyl)cyclohex-1-enyl)pyridin-2-yloxy)methyl)piperidine-1-carboxylate] | 210 nM | 
4 | CC(C)(C)OC(=O)N1CCC(COc2ccc(C3=CCC(C(=O)N4CC[C@H](F)C4)CC3)cn2)CC1 (stereo partly drawn) [Example 91, tert-butyl 4-((5-(4-((S)-3-fluoropyrrolidine-1-carbonyl)cyclohex-1-enyl)pyridin-2-yloxy)methyl)piperidine-1-carboxylate] | 28 nM | ≤ 50 nM
5 | CC(C)(C)OC(=O)N1CCC(COc2ccc(C3=CCC(C(=O)NCC(F)F)CC3)cn2)CC1 (stereo not shown) [Example 87, tert-butyl 4-((5-(4-(2,2-difluoroethylcarbamoyl)cyclohex-1-enyl)pyridin-2-yloxy)methyl)piperidine-1-carboxylate] | 70 nM | 
6 | CC(C)(C)OC(=O)N1CCC(COc2ccc(C3=CCC(C(=O)N4CCOCC4)CC3)cn2)CC1 (stereo not shown) [Example 70, tert-butyl 4-((5-(4-(morpholine-4-carbonyl)cyclohex-1-enyl)pyridin-2-yloxy)methyl)piperidine-1-carboxylate] | 45 nM | ≤ 50 nM
7 | CO/N=C1\CCN(C(=O)C2CC=C(c3ccc(OCC4CCN(C(=O)OC(C)(C)C)CC4)cc3)CC2)C1 (stereo not shown) [Example 273, tert-butyl 4-((4-(4-(3-(methoxyimino)pyrrolidine-1-carbonyl)cyclohex-1-enyl)phenoxy)methyl)piperidine-1-carboxylate] | 11 nM | ≤ 50 nM
8 | CC(C)c1noc(N2CCC(COc3ccc(C4=CCC(C(=O)N5CCSCC5)CC4)cc3)CC2)n1 (stereo not shown) [Example 74, (4-(4-((1-(3-isopropyl-1,2,4-oxadiazol-5-yl)piperidin-4-yl)methoxy)phenyl)cyclohex-3-enyl)(thiomorpholino)methanone] | 6.2 nM | ≤ 50 nM
9 | CC(C)(C)OC(=O)N1CCC(COc2ccc(C3=CCC(C(=O)NC(CO)CO)CC3)cc2F)CC1 (stereo not shown) [Example 67, tert-butyl 4-((4-(4-(1,3-dihydroxypropan-2-ylcarbamoyl)cyclohex-1-enyl)-2-fluorophenoxy)methyl)piperidine-1-carboxylate] | 60 nM | 
10 | CCc1cnc(N2CCC(COc3ccc(C4=CCC(C(=O)NCCCO)CC4)cc3)CC2)nc1 (stereo not shown) [Example 9, 4-(4-((1-(5-ethylpyrimidin-2-yl)piperidin-4-yl)methoxy)phenyl)-N-(3-hydroxypropyl)cyclohex-3-enecarboxamide] | 75 nM | 
11 | CC(C)(C)OC(=O)N1CCC(COc2ccc(C3=CCC(C(=O)N4CCS(=O)(=O)CC4)CC3)cc2F)CC1 (stereo not shown) [Example 73, tert-butyl 4-((2-fluoro-4-(4-(thiomorpholine-1,1-dioxide-4-carbonyl)cyclohex-1-enyl)phenoxy)methyl)piperidine-1-carboxylate] | 11 nM | ≤ 50 nM
12 | CC(C)(C)OC(=O)N1CCC(COc2ccc(C3=CCC(C(=O)N4CCC(F)(F)C4)CC3)cc2)CC1 (stereo not shown) [Example 257, tert-butyl 4-((4-(4-(3,3-difluoropyrrolidine-1-carbonyl)cyclohex-1-enyl)phenoxy)methyl)piperidine-1-carboxylate] | 8 nM | ≤ 50 nM
13 | CC(C)c1noc(N2CCC(COc3ccc(C4=CCC(C(=O)N5CC[C@@H](CO)C5)CC4)cc3)CC2)n1 (stereo partly drawn) [Example 149, ((R)-3-(hydroxymethyl)pyrrolidin-1-yl)(4-(4-((1-(3-isopropyl-1,2,4-oxadiazol-5-yl)piperidin-4-yl)methoxy)phenyl)cyclohex-3-enyl)methanone] | 23 nM | ≤ 50 nM
14 | CON(C)C(=O)C1CC=C(c2ccc(OCC3CCN(c4nc(C(C)C)no4)CC3)cc2)CC1 (stereo not shown) [Example 247, 4-(4-((1-(3-isopropyl-1,2,4-oxadiazol-5-yl)piperidin-4-yl)methoxy)phenyl)-N-methoxy-N-methylcyclohex-3-enecarboxamide] | 16 nM | ≤ 50 nM
15 | CC(C)c1noc(N2CCC(COc3ccc(C4=CCC(C(=O)N[C@@H](C)CO)CC4)cc3)CC2)n1 (stereo partly drawn) [Example 19, N-((S)-1-hydroxypropan-2-yl)-4-(4-((1-(3-isopropyl-1,2,4-oxadiazol-5-yl)piperidin-4-yl)methoxy)phenyl)cyclohex-3-enecarboxamide] | 110 nM | 
16 | CC(C)c1noc(N2CCC(COc3ccc(C4=CCC(C(=O)NCC(=O)N5CCC[C@@H]5C#N)CC4)cc3F)CC2)n1 (stereo partly drawn) [Example 122, N-(2-((R)-2-cyanopyrrolidin-1-yl)-2-oxoethyl)-4-(3-fluoro-4-((1-(3-isopropyl-1,2,4-oxadiazol-5-yl)piperidin-4-yl)methoxy)phenyl)cyclohex-3-enecarboxamide] | 130 nM | 
17 | CC(C)c1noc(N2CCC(COc3ccc(C4=CCC(C(=O)N5CCc6ccccc6C5C)CC4)cc3)CC2)n1 (stereo not shown) [Example 213, (4-(4-((1-(3-isopropyl-1,2,4-oxadiazol-5-yl)piperidin-4-yl)methoxy)phenyl)cyclohex-3-enyl)(1-methyl-3,4-dihydroisoquinolin-2(1H)-yl)methanone] | 24 nM | ≤ 50 nM
18 | CC(C)(C)OC(=O)N1CCC(COc2ccc(C3=CCC(C(=O)NCC(F)F)CC3)cc2F)CC1 (stereo not shown) [Example 85, tert-butyl 4-((4-(4-(2,2-difluoroethylcarbamoyl)cyclohex-1-enyl)-2-fluorophenoxy)methyl)piperidine-1-carboxylate] | 18 nM | ≤ 50 nM
19 | CC(C)c1noc(N2CCC(COc3ccc(C4=CCC(C(=O)N5CCC[C@@H]5C#N)CC4)cc3F)CC2)n1 (stereo partly drawn) [Example 117, (2R)-1-(4-(3-fluoro-4-((1-(3-isopropyl-1,2,4-oxadiazol-5-yl)piperidin-4-yl)methoxy)phenyl)cyclohex-3-enecarbonyl)pyrrolidine-2-carbonitrile] | 11 nM | ≤ 50 nM
20 | CC(C)(C)OC(=O)N1CCC(COc2ccc(C3=CCC(C(=O)N4CCC(=O)C4)CC3)cc2)CC1 (stereo not shown) [Example 265, tert-butyl 4-((4-(4-(3-oxopyrrolidine-1-carbonyl)cyclohex-1-enyl)phenoxy)methyl)piperidine-1-carboxylate] | 32 nM | ≤ 50 nM
21 | CC(C)(C)OC(=O)N1CCC(COc2ccc(C3=CCC(C(=O)NCCF)CC3)cn2)CC1 (stereo not shown) [Example 88, tert-butyl 4-((5-(4-(2-fluoroethylcarbamoyl)cyclohex-1-enyl)pyridin-2-yloxy)methyl)piperidine-1-carboxylate] | 130 nM | 
22 | CC(C)c1noc(N2CCC(COc3ccc(C4=CCC(C(=O)N5CC[C@H](F)C5)CC4)cc3)CC2)n1 (stereo partly drawn) [Example 53, ((S)-3-fluoropyrrolidin-1-yl)(4-(4-((1-(3-isopropyl-1,2,4-oxadiazol-5-yl)piperidin-4-yl)methoxy)phenyl)cyclohex-3-enyl)methanone] | 21 nM | ≤ 50 nM
23 | CC(C)(C)OC(=O)N1CCC(COc2ccc(C3=CCC(C(=O)N4CC[C@@H](O)C4)CC3)cn2)CC1 (stereo partly drawn) [Example 43, tert-butyl 4-((5-(4-((R)-3-hydroxypyrrolidine-1-carbonyl)cyclohex-1-enyl)pyridin-2-yloxy)methyl)piperidine-1-carboxylate] | 85 nM | 
24 | CC(C)(C)OC(=O)N1CCC(COc2ccc(C3=CCC(C(=O)N4CC[C@H](F)C4)CC3)cc2F)CC1 (stereo partly drawn) [Example 57, tert-butyl 4-((2-fluoro-4-(4-((S)-3-fluoropyrrolidine-1-carbonyl)cyclohex-1-enyl)phenoxy)methyl)piperidine-1-carboxylate] | 8 nM | ≤ 50 nM
25 | CCc1cnc(N2CCC(COc3ccc(C4=CCC(C(=O)N5CCCC5)CC4)cc3)CC2)nc1 (stereo not shown) [Example 162, (4-(4-((1-(5-ethylpyrimidin-2-yl)piperidin-4-yl)methoxy)phenyl)cyclohex-3-enyl)(pyrrolidin-1-yl)methanone] | 27 nM | ≤ 50 nM
26 | CC(C)c1noc(N2CCC(COc3ccc(C4=CCC(C(=O)N5CCC5)CC4)cc3)CC2)n1 (stereo not shown) [Example 65, azetidin-1-yl(4-(4-((1-(3-isopropyl-1,2,4-oxadiazol-5-yl)piperidin-4-yl)methoxy)phenyl)cyclohex-3-enyl)methanone] | 41 nM | ≤ 50 nM
27 | CC(C)(C)OC(=O)N1CCC(COc2ccc(C3=CCC(C(=O)N4CCCC4)CC3)cc2)CC1 (stereo not shown) [Example 202, tert-butyl 4-((4-(4-(pyrrolidine-1-carbonyl)cyclohex-1-enyl)phenoxy)methyl)piperidine-1-carboxylate] | 24 nM | ≤ 50 nM
